Experimental data taken from patent publication US9969742B2, “Imidazotriazinone compounds” (Ironwood Pharmaceuticals, Inc., priority 2012, dated 2018).
pIC50: −log10 of the molar value. Where two headings read alike, the source gives them in different places.

What was measured:
Type in all cases: biochemical
PDE9A2 = biological target: T1, PDE9A2 (Homo sapiens, UniProt O76083); assay: Phosphodiesterase enzyme screening assay, PDE9A2
T1 construct: purchased Reaction Biology Corporation, Malvern, Pa
T1 sequence (O76083 1-533 isoform O76083-2): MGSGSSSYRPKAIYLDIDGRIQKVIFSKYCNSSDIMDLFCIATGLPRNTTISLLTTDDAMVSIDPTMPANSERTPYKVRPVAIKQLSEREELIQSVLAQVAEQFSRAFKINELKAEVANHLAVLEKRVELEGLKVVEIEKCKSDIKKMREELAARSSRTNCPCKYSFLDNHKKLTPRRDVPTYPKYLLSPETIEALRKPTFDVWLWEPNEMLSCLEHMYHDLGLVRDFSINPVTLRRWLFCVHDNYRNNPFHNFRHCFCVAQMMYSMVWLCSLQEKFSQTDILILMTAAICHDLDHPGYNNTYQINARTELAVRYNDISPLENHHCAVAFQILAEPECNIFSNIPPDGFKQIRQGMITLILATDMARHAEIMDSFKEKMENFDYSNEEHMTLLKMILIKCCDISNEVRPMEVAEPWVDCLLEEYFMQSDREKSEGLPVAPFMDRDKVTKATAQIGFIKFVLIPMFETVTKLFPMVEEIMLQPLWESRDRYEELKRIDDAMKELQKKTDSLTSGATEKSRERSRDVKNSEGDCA
Method in brief: (§1)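 Read-out was electrophoretic mobility-shift separation on chip of fluorescent cyclic nucleotide from 5′-AMP/5′-GMP, with inhibition or enhancement judged against control wells (quadruplicate means). Reactions lasted 1 h at RT in HEPES pH 7.5 buffer with MgCl2, DTT and Brij plus 4.0 μM cGMP substrate, then were halted with EDTA stop buffer.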

PDE1A = biological target: T2, PDE1A (Homo sapiens, UniProt P54750); assay: Phosphodiesterase enzyme screening assay, PDE1A
T2 construct: purchased Reaction Biology Corporation, Malvern, Pa
T2 sequence (P54750 whole entry): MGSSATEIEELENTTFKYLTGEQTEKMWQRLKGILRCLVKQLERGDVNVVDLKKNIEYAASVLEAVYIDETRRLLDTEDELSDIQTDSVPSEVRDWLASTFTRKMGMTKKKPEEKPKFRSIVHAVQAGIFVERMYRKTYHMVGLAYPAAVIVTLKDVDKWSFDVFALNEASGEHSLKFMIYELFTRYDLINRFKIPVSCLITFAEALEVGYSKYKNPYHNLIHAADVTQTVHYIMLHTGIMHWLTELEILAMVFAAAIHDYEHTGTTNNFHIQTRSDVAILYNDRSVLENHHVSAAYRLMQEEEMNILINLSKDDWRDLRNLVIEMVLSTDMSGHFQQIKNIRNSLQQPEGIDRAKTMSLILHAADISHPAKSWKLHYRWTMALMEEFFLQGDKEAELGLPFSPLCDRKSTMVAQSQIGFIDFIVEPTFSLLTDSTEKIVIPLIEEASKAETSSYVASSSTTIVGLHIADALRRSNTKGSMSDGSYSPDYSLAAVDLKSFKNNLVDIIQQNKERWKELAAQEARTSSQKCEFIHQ
Method in brief: as §1

PDE1B = biological target: T3, PDE1B (Homo sapiens, UniProt Q01064); assay: Phosphodiesterase enzyme screening assay, PDE1B
T3 construct: purchased Reaction Biology Corporation, Malvern, Pa
T3 sequence (Q01064 whole entry): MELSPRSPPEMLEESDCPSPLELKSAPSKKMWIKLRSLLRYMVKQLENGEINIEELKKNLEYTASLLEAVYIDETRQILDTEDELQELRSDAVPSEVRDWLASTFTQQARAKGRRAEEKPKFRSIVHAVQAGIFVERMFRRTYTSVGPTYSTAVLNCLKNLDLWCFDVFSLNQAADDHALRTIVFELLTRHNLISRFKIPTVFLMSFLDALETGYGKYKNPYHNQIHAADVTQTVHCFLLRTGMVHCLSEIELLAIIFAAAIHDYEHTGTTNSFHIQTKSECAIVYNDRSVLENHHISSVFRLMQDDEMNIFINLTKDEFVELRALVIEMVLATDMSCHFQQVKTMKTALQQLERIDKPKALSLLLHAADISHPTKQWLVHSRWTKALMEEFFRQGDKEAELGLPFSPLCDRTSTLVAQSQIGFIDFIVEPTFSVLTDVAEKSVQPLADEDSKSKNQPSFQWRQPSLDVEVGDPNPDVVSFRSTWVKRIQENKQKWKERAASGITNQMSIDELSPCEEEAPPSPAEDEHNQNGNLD
Method in brief: as §1

[1] = Table 3, 4.0 μM cGMP substrate, 1 hour at R.T., read-out: Band (PDE9A2 IC50)
[2] = ratio of IC50 values, PDE1A versus PDE9A2, value greater than 1 = greater selectivity for PDE9A2
[3] = ratio of IC50 values, PDE1B versus PDE9A2, value greater than 1 = greater selectivity for PDE9A2
[4] = ratio of IC50 values, PDE1A versus PDE9A2, value greater than 1 indicates greater selectivity for PDE9A2
[5] = ratio of IC50 values, PDE1B versus PDE9A2, value greater than 1 indicates greater selectivity for PDE9A2
[6] = IC50 band, 4.0 μM cGMP substrate, 1 hour at R.T.
[7] = ratio of IC50 values PDE1A vs PDE9A2, value greater than 1 indicates greater selectivity for PDE9A2
[8] = ratio of IC50 values PDE1B vs PDE9A2, value greater than 1 indicates greater selectivity for PDE9A2
[9] = Table 1, 10 concentrations, 4.0 μM cGMP substrate, 1 hour at R.T., read-out: Band (PDE9A2 IC50)
[10] = Table 1, ratio of IC50 values, value greater than 1 indicates greater selectivity for PDE9A2
[11] = 4.0 μM cGMP substrate, 1 hour at R.T., read-out: Band (PDE9A2 IC50)
[12] = ratio of IC50 values PDE1A / PDE9A2, value greater than 1 = greater selectivity for PDE9A2
[13] = ratio of IC50 values PDE1B / PDE9A2, value greater than 1 = greater selectivity for PDE9A2
[14] = Table 2, 10 concentrations, 4.0 μM cGMP substrate, 1 hour at R.T., read-out: Band (PDE9A2 IC50)
[15] = Table 2, ratio of IC50 values, value greater than 1 indicates greater selectivity for PDE9A2

Cc1cccnc1CN1CC(C)C(c2nn3c(C4CCOCC4)ncc3c(=O)[nH]2)C1 (single isomer, unassigned; (+)) [(+)-2-((3,4-trans)-4-methyl-1-((3-methylpyridin-2-yl)methyl)pyrrolidin-3-yl)-7-(tetrahydro-2H-pyran-4-yl)imidazo[5,1-f][1,2,4]triazin-4(3H)-one]
pIC50 (PDE9A2; [1]): > 6.00 | PDE1A selectivity (versus PDE9A2) (PDE1A; [2]): 242 | PDE1B selectivity (versus PDE9A2) (PDE1B; [3]): 298

CC1CN(Cc2cccnc2)CC1c1nn2c(-c3cccc(F)c3)ncc2c(=O)[nH]1 (single isomer, unassigned; (+)) [(+)-7-(3-fluorophenyl)-2-((3,4-trans)-4-methyl-1-(pyridin-3-ylmethyl)pyrrolidin-3-yl)imidazo[5,1-f][1,2,4]triazin-4(3H)-one]
pIC50 (PDE9A2; read-out: Band (PDE9A2 IC50)): > 6.00 | PDE1A selectivity (versus PDE9A2) (PDE1A; [4]): 15 | PDE1B selectivity (versus PDE9A2) (PDE1B; [5]): 37

CC1CN(Cc2ccccn2)CC1c1nn2c(C3CCC(F)(F)CC3)ncc2c(=O)[nH]1 (single isomer, unassigned; (+)) [(+)-7-(4,4-difluorocyclohexyl)-2-((3,4-trans)-4-methyl-1-(pyridin-2-ylmethyl)pyrrolidin-3-yl)imidazo[5,1-f][1,2,4]triazin-4(3H)-one]
pIC50 (PDE9A2; [6]): > 6.00 | PDE1A selectivity (versus PDE9A2) (PDE1A; [7]): 167 | PDE1B selectivity (versus PDE9A2) (PDE1B; [8]): 362

CC1CN(Cc2ccc(C3CC3)cc2)CC1c1nn2c(C3CCOCC3)ncc2c(=O)[nH]1 (single isomer, unassigned; (+)) [(+)-2-((3,4-trans)-1-(4-cyclopropylbenzyl)-4-methylpyrrolidin-3-yl)-7-(tetrahydro-2H-pyran-4-yl)imidazo[5,1-f][1,2,4]triazin-4(3H)-one]
pIC50 (PDE9A2; [9]): > 6.00 | PDE1A selectivity (versus PDE9A2) (PDE1A; [10]): 260 | PDE1B selectivity (versus PDE9A2) (PDE1B; [10]): 605

Cc1ccc(F)cc1-c1ncc2c(=O)[nH]c(C3CN(Cc4nc5ccccn5n4)CC3C)nn12 (single isomer, unassigned; (+)) [(+)-2-((3,4-trans)-1-([1,2,4]triazolo[1,5-a]pyridin-2-ylmethyl)-4-methylpyrrolidin-3-yl)-7-(5-fluoro-2-methylphenyl)imidazo[5,1-f][1,2,4]triazin-4(3H)-one]
pIC50 (PDE9A2; [6]): > 6.00 | PDE1A selectivity (versus PDE9A2) (PDE1A; [7]): 487 | PDE1B selectivity (versus PDE9A2) (PDE1B; [8]): 473

CC1CN(Cc2ccc(F)cn2)CC1c1nn2c(C3CCOCC3)ncc2c(=O)[nH]1 (single isomer, unassigned; (+)) [(+)-2-((3,4-trans)-1-((5-fluoropyridin-2-yl)methyl)-4-methylpyrrolidin-3-yl)-7-(tetrahydro-2H-pyran-4-yl)imidazo[5,1-f][1,2,4]triazin-4(3H)-one]
pIC50 (PDE9A2; [1]): > 6.00 | PDE1A selectivity (versus PDE9A2) (PDE1A; [2]): 273 | PDE1B selectivity (versus PDE9A2) (PDE1B; [3]): 377

COc1ccnc(CN2CC(C)C(c3nn4c(C5CCOCC5)ncc4c(=O)[nH]3)C2)c1 (single isomer, unassigned; (+)) [(+)-2-((3,4-trans)-1-((4-methoxypyridin-2-yl)methyl)-4-methylpyrrolidin-3-yl)-7-(tetrahydro-2H-pyran-4-yl)imidazo[5,1-f][1,2,4]triazin-4(3H)-one]
pIC50 (PDE9A2; [1]): > 6.00 | PDE1A selectivity (versus PDE9A2) (PDE1A; [2]): 466 | PDE1B selectivity (versus PDE9A2) (PDE1B; [3]): 456

CC1CN(Cc2cccc(C#N)c2)CC1c1nn2c(C3CCOCC3)ncc2c(=O)[nH]1 (single isomer, unassigned; (+)) [(+)-3-(((3,4-trans)-3-methyl-4-(4-oxo-7-(tetrahydro-2H-pyran-4-yl)-3,4-dihydroimidazo[5,1-f][1,2,4]triazin-2-yl)pyrrolidin-1-yl)methyl)benzonitrile]
pIC50 (PDE9A2; [9]): > 6.00 | PDE1A selectivity (versus PDE9A2) (PDE1A; [10]): 942 | PDE1B selectivity (versus PDE9A2) (PDE1B; [10]): 343

Cc1cc(F)ccc1-c1ncc2c(=O)[nH]c(C3CN(Cc4cn5ccccc5n4)CC3C)nn12 (single isomer, unassigned; (+)) [(+)-7-(4-fluoro-2-methylphenyl)-2-((3,4-trans)-1-(imidazo[1,2-a]pyridin-2-ylmethyl)-4-methylpyrrolidin-3-yl)imidazo[5,1-f][1,2,4]triazin-4(3H)-one]
pIC50 (PDE9A2; [6]): > 6.00 | PDE1A selectivity (versus PDE9A2) (PDE1A; [7]): 339 | PDE1B selectivity (versus PDE9A2) (PDE1B; [8]): 792

Cc1ccnc(CN2CC(C)C(c3nn4c(C5CCOCC5)ncc4c(=O)[nH]3)C2)c1 (single isomer, unassigned; (+)) [(+)-2-((3,4-trans)-4-methyl-1-((4-methylpyridin-2-yl)methyl)pyrrolidin-3-yl)-7-(tetrahydro-2H-pyran-4-yl)imidazo[5,1-f][1,2,4]triazin-4(3H)-one]
pIC50 (PDE9A2; [11]): > 6.00 | PDE1A selectivity (versus PDE9A2) (PDE1A; [12]): 143 | PDE1B selectivity (versus PDE9A2) (PDE1B; [13]): 116

CC1CN(Cc2ncc(F)cn2)CC1c1nn2c(C3CCOCC3)ncc2c(=O)[nH]1 (single isomer, unassigned; (+)) [(+)-2-((3,4-trans)-1-((5-fluoropyrimidin-2-yl)methyl)-4-methylpyrrolidin-3-yl)-7-(tetrahydro-2H-pyran-4-yl)imidazo[5,1-f][1,2,4]triazin-4(3H)-one]
pIC50 (PDE9A2; [14]): > 6.00 | PDE1A selectivity (versus PDE9A2) (PDE1A; [15]): 133 | PDE1B selectivity (versus PDE9A2) (PDE1B; [15]): 279

CCC(CC)c1ncc2c(=O)[nH]c(C3CN(Cc4nc5ccccn5n4)CC3C)nn12 (single isomer, unassigned; (+)) [(+)-2-((3,4-trans)-1-([1,2,4]triazolo[1,5-a]pyridin-2-ylmethyl)-4-methylpyrrolidin-3-yl)-7-(pentan-3-yl)imidazo[5,1-f][1,2,4]triazin-4(3H)-one]
pIC50 (PDE9A2; [11]): > 6.00 | PDE1A selectivity (versus PDE9A2) (PDE1A; ratio of IC50 values PDE1A / PDE9A2, value greater than 1 indicates greater selectivity for PDE9A2): 386 | PDE1B selectivity (versus PDE9A2) (PDE1B; ratio of IC50 values PDE1B / PDE9A2, value greater than 1 indicates greater selectivity for PDE9A2): 306

Cc1cc(C)nc(CN2CC(C)C(c3nn4c(C5CCOCC5)ncc4c(=O)[nH]3)C2)n1 (single isomer, unassigned; (+)) [(+)-2-((3,4-trans)-1-((4,6-dimethylpyrimidin-2-yl)methyl)-4-methylpyrrolidin-3-yl)-7-(tetrahydro-2H-pyran-4-yl)imidazo[5,1-f][1,2,4]triazin-4(3H)-one]
pIC50 (PDE9A2; [14]): > 6.00 | PDE1A selectivity (versus PDE9A2) (PDE1A; [15]): 947 | PDE1B selectivity (versus PDE9A2) (PDE1B; [15]): 767

CC1CN(Cc2ccoc2)CC1c1nn2c(C3CCOCC3)ncc2c(=O)[nH]1 (single isomer, unassigned; (+)) [(+)-2-((3,4-trans)-1-(furan-3-ylmethyl)-4-methylpyrrolidin-3-yl)-7-(tetrahydro-2H-pyran-4-yl)imidazo[5,1-f][1,2,4]triazin-4(3H)-one]
pIC50 (PDE9A2; [1]): > 6.00 | PDE1A selectivity (versus PDE9A2) (PDE1A; [2]): 68 | PDE1B selectivity (versus PDE9A2) (PDE1B; [3]): 123

CC1CN(C(=O)c2cccnc2)CC1c1nn2c(C3CCOCC3)ncc2c(=O)[nH]1 (single isomer, unassigned; (-)) [(−)-2-((3,4-trans)-4-methyl-1-nicotinoylpyrrolidin-3-yl)-7-(tetrahydro-2H-pyran-4-yl)imidazo[5,1-f][1,2,4]triazin-4(3H)-one]
pIC50 (PDE9A2; [9]): > 6.00 | PDE1A selectivity (versus PDE9A2) (PDE1A; [10]): 36 | PDE1B selectivity (versus PDE9A2) (PDE1B; [10]): 50

Cc1ccccc1-c1ncc2c(=O)[nH]c(C3CN(Cc4ccc(Cl)cc4)CC3C)nn12 (single isomer, unassigned; (+)) [(+)-2-((3,4-trans)-1-(4-chlorobenzyl)-4-methylpyrrolidin-3-yl)-7-(o-tolyl)imidazo[5,1-f][1,2,4]triazin-4(3H)-one]
pIC50 (PDE9A2; read-out: Band (PDE9A2 IC50)): > 6.00 | PDE1A selectivity (versus PDE9A2) (PDE1A; [4]): 55 | PDE1B selectivity (versus PDE9A2) (PDE1B; [5]): 109

CC1CN(Cc2cccc(Cl)c2Cl)CC1c1nn2c(C3CCOCC3)ncc2c(=O)[nH]1 (single isomer, unassigned; (+)) [(+)-2-((3,4-trans)-1-(2,3-dichlorobenzyl)-4-methylpyrrolidin-3-yl)-7-(tetrahydro-2H-pyran-4-yl)imidazo[5,1-f][1,2,4]triazin-4(3H)-one]
pIC50 (PDE9A2; [11]): > 6.00 | PDE1A selectivity (versus PDE9A2) (PDE1A; [12]): 195 | PDE1B selectivity (versus PDE9A2) (PDE1B; [13]): 199

CC1CN(Cc2ccccn2)CC1c1nn2c(-c3cccc(F)c3)ncc2c(=O)[nH]1 (single isomer, unassigned; (+)) [(+)-7-(3-fluorophenyl)-2-((3,4-trans)-4-methyl-1-(pyridin-2-ylmethyl)pyrrolidin-3-yl)imidazo[5,1-f][1,2,4]triazin-4(3H)-one]
pIC50 (PDE9A2; read-out: Band (PDE9A2 IC50)): > 6.00 | PDE1A selectivity (versus PDE9A2) (PDE1A; [4]): 190 | PDE1B selectivity (versus PDE9A2) (PDE1B; [5]): 236

CC1CN(Cc2ccc(F)cc2)CC1c1nn2c(-c3cccc(F)c3)ncc2c(=O)[nH]1 (single isomer, unassigned; (+)) [(+)-2-((3,4-trans)-1-(4-fluorobenzyl)-4-methylpyrrolidin-3-yl)-7-(3-fluorophenyl)imidazo[5,1-f][1,2,4]triazin-4(3H)-one]
pIC50 (PDE9A2; read-out: Band (PDE9A2 IC50)): > 6.00 | PDE1A selectivity (versus PDE9A2) (PDE1A; [4]): 42 | PDE1B selectivity (versus PDE9A2) (PDE1B; [5]): 57
